Data on one molecule can be found in patent US20200316083A1, “ANTIBACTERIAL COMPOSITIONS” (WOCKHARDT LIMITED, priority 2016, published 2020).

Common to all, as to format: cell-based
Assay [1] relates to K. pneumoniae B-88 producing metallo beta-lactamase enzymes. In words: Time kill study against K. pneumoniae B-88. How it is done:
(§1) In general, the antibacterial activity of compositions according to invention was studied by performing time kill studies. In a typical time kill study, the freshly grown cultures were diluted to the required cell density (initial starting inoculum) in cation adjusted Muller Hinton broth medium (BD, USA). The antibacterial agents (either alone or in combination) at the required concentrations were added into the culture-containing medium. The samples were incubated under shaking condition (120 rpm) at 37° C. Enumeration of viable bacterial count was done every 2 hour by diluting in normal saline and plating on to the Tryptic Soya Agar plates (BD, USA). The plates were incubated for 24 hours to arrive at a viable bacterial count. The results are expressed in terms of log10 CFU/ml. In general, the decrease of 1 log10 CFU/ml corresponds to 90% killing of bacteria. Similarly, 2 log10 CFU/ml reductions indicates to 99% killing of bacteria and 3 log10 CFU/ml reductions is equal to 99.9% killing of bacteria.

The subject of assay [2] is E. coli 7MP producing Class A and Class C beta-lactamase enzymes. In words: Time kill study against E. coli 7MP. How it is done: as §1
Assay [3] deals with A. baumanni 13301 producing Carbapenem hydrolysing beta-lactamase enzymes. In words: Time kill study against A. baumanni 13301. How it is done: as §1

`O=C(NOC[C@@H]1CCCN1)[C@@H]1CC[C@@H]2CN1C(=O)N2OS(=O)(=O)O` [Compound (D)]: the “Bacterial count (Log10 CFU/ml) 0 hours” value in assay [1] (0 hours, 2 mcg/ml alone) worked out at 7.28 Log10 CFU/ml; in assay [3] (0 hours, 4 mcg/ml alone), 6.88 Log10 CFU/ml. The “Change in Log10 CFU/ml over 0 hour count after 24 hours” value came out at 1.26 Log10 CFU/ml in assay [1] (2 mcg/ml alone); 0.22 Log10 CFU/ml in assay [2] (Table 2, 2 mcg/ml alone); 2.07 Log10 CFU/ml in assay [3] (4 mcg/ml alone). For the same molecule, the “Bacterial count (Log10 CFU/ml) 2 hours” value in assay [1] (2 hours, 2 mcg/ml alone) came to 7.60 Log10 CFU/ml; in assay [2] (Table 2, 2 hours, 2 mcg/ml alone), 7.65 Log10 CFU/ml; in assay [3] (2 hours, 4 mcg/ml alone), 7.98 Log10 CFU/ml. Moreover, the “Bacterial count (Log10 CFU/ml) 4 hours” value in assay [1] (4 hours, 2 mcg/ml alone) came to 8.26 Log10 CFU/ml; in assay [2] (Table 2, 4 hours, 2 mcg/ml alone) it was 7.30 Log10 CFU/ml; in assay [3] (4 hours, 4 mcg/ml alone), 8.60 Log10 CFU/ml. Also, the “Bacterial count (Log10 CFU/ml) 6 hours” value is 8.18 Log10 CFU/ml in assay [1] (6 hours, 2 mcg/ml alone); 7.78 Log10 CFU/ml in assay [2] (Table 2, 6 hours, 2 mcg/ml alone); 9.00 Log10 CFU/ml in assay [3] (6 hours, 4 mcg/ml alone). For the same molecule, the “Bacterial count (Log10 CFU/ml) 24 hours” value stood at 8.54 Log10 CFU/ml in assay [1] (24 hours, 2 mcg/ml alone); 7.30 Log10 CFU/ml in assay [2] (Table 2, 24 hours, 2 mcg/ml alone); 8.95 Log10 CFU/ml in assay [3] (24 hours, 4 mcg/ml alone). Further, the “Effect on bacterial count (in words)” value in assay [1] (summary of Table 1, alone or in combination) is reported as “could not reduce the bacterial count”; in assay [2] (summary of Table 2, alone or in combination), “could not reduce the bacterial count”; in assay [3] (summary of Table 3, alone or in combination) it was “could not reduce the bacterial count”. Also, the “Bacterial count (Log10 CFU/ml) 8 hours” value in assay [3] (8 hours, 4 mcg/ml alone) is listed as 9.04 Log10 CFU/ml.
